Measurements published in ChEMBL document CHEMBL1128738, “Sigma ligands with subnanomolar affinity and preference for the sigma 2 binding site. 1. 3-(omega-aminoalkyl)-1H-indoles” (J Med Chem, 1995).

How the values were obtained:
[1] = target: Sigma 2 receptor; assay: Binding affinity towards sigma receptor binding site 2 using [3H]DTG of whole rat brain homogenates except cerebellum; format: tissue-based
[2] = target: 5-hydroxytryptamine receptor 2A (Rattus norvegicus, UniProt P14842); assay: Binding affinity towards 5-hydroxytryptamine 2A receptor binding site using [3H]ketanserin.
Sequence of 5-hydroxytryptamine receptor 2A (P14842 whole entry): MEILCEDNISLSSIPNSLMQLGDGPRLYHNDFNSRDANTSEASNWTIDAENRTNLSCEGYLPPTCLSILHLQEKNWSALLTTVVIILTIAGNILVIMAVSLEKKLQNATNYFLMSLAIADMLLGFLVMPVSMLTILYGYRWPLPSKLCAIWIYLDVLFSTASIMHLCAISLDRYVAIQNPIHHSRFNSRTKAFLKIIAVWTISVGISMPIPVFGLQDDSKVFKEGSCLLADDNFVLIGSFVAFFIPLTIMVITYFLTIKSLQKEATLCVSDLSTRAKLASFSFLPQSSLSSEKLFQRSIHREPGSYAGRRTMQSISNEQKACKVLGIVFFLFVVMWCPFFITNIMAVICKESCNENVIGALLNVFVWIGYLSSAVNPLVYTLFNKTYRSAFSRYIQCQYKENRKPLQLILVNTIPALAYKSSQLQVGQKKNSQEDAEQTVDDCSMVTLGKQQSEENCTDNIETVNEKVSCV

[3] = target: T1, 5-hydroxytryptamine receptor 1A (Rattus norvegicus, UniProt P19327); assay: Binding affinity towards 5-hydroxytryptamine 1A receptor binding site using [3H]8-OH-DPAT.
T1 sequence (P19327 whole entry): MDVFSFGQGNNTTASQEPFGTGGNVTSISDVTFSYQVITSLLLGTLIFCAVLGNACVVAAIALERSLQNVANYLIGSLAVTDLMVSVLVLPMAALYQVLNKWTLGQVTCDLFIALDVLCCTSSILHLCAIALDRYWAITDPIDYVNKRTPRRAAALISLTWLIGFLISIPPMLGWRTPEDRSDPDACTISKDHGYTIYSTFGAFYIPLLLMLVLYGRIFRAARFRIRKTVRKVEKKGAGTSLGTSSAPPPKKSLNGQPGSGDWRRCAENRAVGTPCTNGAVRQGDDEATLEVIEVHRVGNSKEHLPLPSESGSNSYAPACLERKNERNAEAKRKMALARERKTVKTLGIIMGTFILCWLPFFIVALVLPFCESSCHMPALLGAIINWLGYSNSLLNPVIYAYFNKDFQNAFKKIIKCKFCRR

[4] = target: Sigma non-opioid intracellular receptor 1 (Rattus norvegicus, UniProt Q9R0C9); assay: Binding affinity towards sigma receptor binding site 1 using [3H](+)-pentazocine
Sequence of Sigma non-opioid intracellular receptor 1 (Q9R0C9 whole entry): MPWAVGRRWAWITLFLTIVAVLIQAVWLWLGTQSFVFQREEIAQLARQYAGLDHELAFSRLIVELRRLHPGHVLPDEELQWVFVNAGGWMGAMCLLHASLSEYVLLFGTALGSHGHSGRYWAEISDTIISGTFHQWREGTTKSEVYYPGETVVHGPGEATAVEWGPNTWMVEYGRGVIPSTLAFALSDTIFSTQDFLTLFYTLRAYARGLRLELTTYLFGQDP

[5] = target: T2, Adrenergic receptor alpha-1 (Rattus norvegicus, UniProt P15823+P23944+P43140); assay: Binding affinity towards Alpha-1 adrenergic receptor binding site using [3H]prazosin.; format: protein assay
T2 sequence (P15823 whole entry): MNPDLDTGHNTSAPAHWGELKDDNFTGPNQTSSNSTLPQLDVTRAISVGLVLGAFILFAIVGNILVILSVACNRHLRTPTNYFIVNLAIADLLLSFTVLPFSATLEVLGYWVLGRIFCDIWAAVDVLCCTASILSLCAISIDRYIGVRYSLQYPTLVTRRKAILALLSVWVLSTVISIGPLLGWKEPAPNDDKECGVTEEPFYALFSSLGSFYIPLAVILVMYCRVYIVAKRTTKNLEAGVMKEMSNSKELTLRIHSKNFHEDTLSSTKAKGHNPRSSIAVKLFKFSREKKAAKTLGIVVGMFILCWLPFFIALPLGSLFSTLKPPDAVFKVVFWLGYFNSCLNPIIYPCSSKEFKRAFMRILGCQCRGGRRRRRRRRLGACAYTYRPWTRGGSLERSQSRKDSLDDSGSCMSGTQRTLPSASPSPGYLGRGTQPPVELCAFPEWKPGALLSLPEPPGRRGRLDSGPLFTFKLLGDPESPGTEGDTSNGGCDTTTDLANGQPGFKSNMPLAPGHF
T2 sequence (P23944 whole entry): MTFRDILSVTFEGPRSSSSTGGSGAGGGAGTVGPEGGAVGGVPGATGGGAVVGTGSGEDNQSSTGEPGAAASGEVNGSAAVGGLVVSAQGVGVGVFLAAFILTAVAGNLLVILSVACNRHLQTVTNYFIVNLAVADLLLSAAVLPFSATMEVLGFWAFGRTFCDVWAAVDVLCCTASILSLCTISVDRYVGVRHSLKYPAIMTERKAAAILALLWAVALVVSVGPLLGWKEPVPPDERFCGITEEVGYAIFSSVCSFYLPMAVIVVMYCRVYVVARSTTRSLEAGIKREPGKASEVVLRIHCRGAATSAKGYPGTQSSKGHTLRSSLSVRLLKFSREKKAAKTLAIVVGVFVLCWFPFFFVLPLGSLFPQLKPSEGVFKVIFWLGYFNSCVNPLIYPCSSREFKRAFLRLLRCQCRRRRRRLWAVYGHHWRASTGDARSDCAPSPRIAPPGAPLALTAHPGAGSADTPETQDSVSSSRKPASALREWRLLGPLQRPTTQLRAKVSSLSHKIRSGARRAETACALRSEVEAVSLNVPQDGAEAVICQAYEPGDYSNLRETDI
T2 sequence (P43140 whole entry): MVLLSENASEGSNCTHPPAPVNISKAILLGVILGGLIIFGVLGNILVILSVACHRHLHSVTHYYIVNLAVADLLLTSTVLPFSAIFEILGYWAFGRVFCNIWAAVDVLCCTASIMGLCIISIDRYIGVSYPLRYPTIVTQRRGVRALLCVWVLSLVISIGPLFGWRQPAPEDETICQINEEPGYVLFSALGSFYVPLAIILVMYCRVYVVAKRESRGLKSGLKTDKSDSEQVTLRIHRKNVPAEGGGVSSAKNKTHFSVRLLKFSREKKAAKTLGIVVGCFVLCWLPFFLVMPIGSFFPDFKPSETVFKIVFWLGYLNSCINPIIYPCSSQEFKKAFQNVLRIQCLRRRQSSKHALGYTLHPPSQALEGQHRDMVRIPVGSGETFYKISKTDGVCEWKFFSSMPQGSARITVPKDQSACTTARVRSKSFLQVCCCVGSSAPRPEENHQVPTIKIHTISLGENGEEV

[6] = target: D(2) dopamine receptor (Rattus norvegicus, UniProt P61169); assay: Binding affinity towards Dopamine receptor D2 binding site using [3H]spiroperidol.
Sequence of D(2) dopamine receptor (P61169 whole entry): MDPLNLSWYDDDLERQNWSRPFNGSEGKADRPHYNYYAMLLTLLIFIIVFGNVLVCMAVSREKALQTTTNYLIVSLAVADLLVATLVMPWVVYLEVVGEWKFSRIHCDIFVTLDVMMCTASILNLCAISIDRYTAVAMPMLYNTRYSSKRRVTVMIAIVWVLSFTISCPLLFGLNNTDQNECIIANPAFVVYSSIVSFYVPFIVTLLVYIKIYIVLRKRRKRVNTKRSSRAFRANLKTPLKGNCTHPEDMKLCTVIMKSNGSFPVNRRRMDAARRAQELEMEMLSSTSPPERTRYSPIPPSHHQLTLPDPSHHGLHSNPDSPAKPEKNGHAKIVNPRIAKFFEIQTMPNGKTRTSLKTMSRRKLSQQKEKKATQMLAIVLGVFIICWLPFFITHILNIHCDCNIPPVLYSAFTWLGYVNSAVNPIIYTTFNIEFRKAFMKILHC

[7] = target: Sigma non-opioid intracellular receptor 1 (Rattus norvegicus) (UniProt Q9R0C9); assay: Ratio of the binding affinities for sigma-1 and sigma 2 type receptors, ratio of IC50
Sequence of Sigma non-opioid intracellular receptor 1 (Rattus norvegicus) (Q9R0C9 whole entry): as the sequence (Q9R0C9 whole entry) above

[8] = target: T2, Adrenergic receptor alpha-1; assay: Binding affinity for Alpha-1 adrenergic receptor with [3H]prazosin; format: protein assay

SMILES	IC50 [1] [nM]	IC50 [2] [nM]	IC50 [3] [nM]	IC50 [4] [nM]	IC50 [5] [nM]	IC50 [6] [nM]	Ratio [7]	IC50 [8] [nM]
c1ccc(C2CCN(CCCCc3c[nH]c4ccccc34)CC2)cc1	0.48	25	110	1.5	14	45		
Fc1ccc(C2=CCN(CCCCc3c[nH]c4ccccc34)CC2)cc1	2.3	27	71	7.5	24	51		
c1ccc2c(c1)COC21CCN(CCCCc2cn(-c3ccsc3)c3ccccc23)CC1	0.25			7			28	
Cn1cc(CCCCN2CCC3(CC2)OCc2ccccc23)c2ccccc21	0.3			2.1			7	
Fc1ccc(-n2cc(CN3CCC4(CC3)OCc3ccccc34)c3ccccc32)cc1	4.7			3			0.64	
Fc1ccc(C2=CC3CCC(C2)N3CCCCc2cn(-c3ccc(F)cc3)c3ccccc23)cc1 (stereo not given)	2.5	3700	> 10000	1200	350	8000		
c1ccc2c(c1)COC21CCN(CCCCc2cn(-c3nccs3)c3ccccc23)CC1	0.19			14			74	
c1csc(-n2cc(CCCCN3CCC4(CC3)OCc3ccccc34)c3ccccc32)c1	0.24			7.7			32	
c1ccc2c(c1)COC21CCN(CCCCc2cn(-c3ccncc3)c3ccccc23)CC1	0.41			14			34	
Fc1ccc(-n2cc(CCCCN3CCN(c4ccccc4)CC3)c3ccccc32)cc1	0.69			27			39	
Fc1ccc(C2CCN(CCCCc3c[nH]c4ccccc34)CC2)cc1	4	34	27	1.4	20	160		
Cc1ccc(S(=O)(=O)n2cc(CCCCN3CCC4(CC3)OCc3ccccc34)c3ccccc32)cc1	0.17			10			59	
Fc1ccc(C2CCN(CCCCc3cn(-c4ccc(F)cc4)c4ccccc34)CC2)cc1	0.27	270	22000		220	4200		
c1ccc2c(c1)COC21CCN(CCCCc2c[nH]c3ccccc23)CC1	0.41	360	130	2.5	30	1300		
COc1ccccc1N1CCN(CCCCc2c[nH]c3ccccc23)CC1	21	150		14	2.7	15		
c1ccc(Cn2cc(CCCCN3CCC4(CC3)OCc3ccccc34)c3ccccc32)cc1	0.48			5.2			11	
c1ccc(CN2CCC3(CCCc4ccccc43)CC2)cc1	12	7100	> 100000	0.26	1000			
Fc1ccc(-n2cc(CCCN3CCC4(CC3)OCc3ccccc34)c3ccccc32)cc1	2.8			10			3.6	
OC(CCCN1CCN(c2ncc(F)cn2)CC1)c1ccc(F)cc1 (stereo not given) [BMY-14802]		830			1500	8400		
O=C(CC1CCN(CC2CC2)CC1)c1ccc(F)cc1		66	44000		21			
CC(=O)n1cc(CCCCN2CCC3(CC2)OCc2ccccc23)c2ccccc21	0.21			5.7			27	
Fc1ccc(N2CCN(CCCCc3cn(-c4ccc(F)cc4)c4ccccc34)CC2)cc1	7.5	250	> 10000	440	420	3000		
COc1ccccc1C1CCN(CCCCc2c[nH]c3ccccc23)CC1	3.3	83	56	4.5	11	20		
Fc1ccc(N2CCN(CCCCc3c[nH]c4ccccc34)CC2)cc1	1.3	14	37	5.6	12	180		
Fc1ccc(-n2cc(CCCCN3CCC(c4ccccc4)CC3)c3ccccc32)cc1	0.44			44			100	
Fc1ccc(-n2cc(CCCCN3CCC4(CC3)OCc3ccccc34)c3ccccc32)cc1 [SIRAMESINE]		2000	21000			800		330
Fc1ccc(-n2cc(CCN3CCC4(CC3)OCc3ccccc34)c3ccccc32)cc1	3			15			5	
CS(=O)(=O)n1cc(CCCCN2CCC3(CC2)OCc2ccccc23)c2ccccc21	0.05			1.3			26	
